# Test results from patent publication US20240335465A1 (University of Virginia Patent Foundation, priority 2021, published 2024).
# Experiments:
# DDR signaling [1] = experiment: DDR signaling immunoblotting in primary mouse embryonic fibroblasts
# PARylation = experiment: PolyADP-ribosylation (PARylation) immunoblot; type: cell-based, human
# From the text: Cells were collected by centrifugation, washed once with ice-cold PBS, lysed in RIPA buffer and analyzed by western blot to detect PARylation using pADPr Antibody (Santa Cruz sc-56198).
# DDR signaling [2] = experiment: DDR signaling immunoblot in HEK293 cells; type: cell-based, human; conditions: HEK293, 4 hours post transfection
# THP1 cells = experiment: Alkaline comet assay in THP1 cells; type: cell-based, human
# Description: Comet assays: DNA damage in individual cells was assessed using OxiSelect™ Comet Assay Kits (Cell Biolabs, Cat #STA-351) according to the manufacturer's protocol. THP1 cells were treated as indicated, collected by centrifugation, washed twice with ice-cold PBS, and resuspended in cold PBS at 1×10^5 cells/ml. Cells were mixed with molten Comet agarose (1:10, v/v) and immediately transferred to wells of the Comet Agarose Base Layer (pre-prepared by adding 75 μl molten agarose to Comet slides) in 75 μl aliquots. Cells were embedded on the agarose by cooling the gel at 4° C. for 15 minutes in the dark and then lysed in pre-chilled lysis buffer for 60 minutes at 4° C. The cell-containing slides were neutralized in pre-chilled alkaline buffer for 30 minutes and then carefully transferred to a horizontal electrophoresis chamber. Electrophoresis was conducted in cold Alkaline Electrophoresis Solution (300 mM NaOH, pH>13, 1 mM EDTA) for 30 minutes at 1 volt/cm (300 mA current). The samples were washed three times in pre-chilled water and immersed in 70% ethanol for 5 minutes. The cells were subsequently air dried and their DNA stained with 100 μl/well of diluted Vista Green DNA Dye. After incubating at room temperature, cells were finally visualized under a fluorescence microscope using an FITC filter. Comet length was quantified using OpenComet software as described before (Gyori et al., 2014).
# [3] = system: hRPE and U2OS-STING cells; experiment: EdU incorporation assay; type: cell-based, human; conditions: 18 hours
# From the text: EdU incorporated cells were detected by confocal microscopy after Click-iT® EdU labeling following the manufacturer's protocol (Click-iT™ EdU Alexa Fluor™ 594 Imaging Kit, Thermo Fisher Cat #C10339).
# DDR signaling [4] = experiment: DDR signaling immunoblot in STING-reconstituted U2OS cells; type: cell-based, human; conditions: cGAMP 18 hours
# Description: Generation of U2OS-STING cells: WT U2OS cells were reconstituted with STING by integrating LentiORF-TMEM173 (CCSB-Broad Lentiviral Expression Collection, TMEM173, Cat #ccsbBroad304_05465) via lentiviral transduction of U2OS cells as described above. Exposure to blasticidin (10 μg/ml) for 14 days facilitated the selection of STING integrated cells whose protein over-expression profiles were assessed by immunoblotting.
# DDR signaling [5] = experiment: DDR signaling immunoblotting in THP1 cells
# cell cycle progression = experiment: Cell cycle analysis by flow cytometry (BrdU, propidium iodide); type: cell-based, human
# Description: Cells were washed with cold PBS and resuspended in 0.5 ml PBS to achieve a single cell suspension. Cells were fixed in a tube containing 4.5 ml 70% ethanol kept at 4° C. overnight. Cells were collected by centrifugation at 500 g for 5 minutes and washed twice with PBS. Washed cells were then stained with 1 ml of freshly prepared staining solution containing propidium iodide (10 μg/ml), DNase-free RNaseA (100 μg/ml), and 0.1% (v/v) Triton X-100 before being subjected to flow cytometry measurement. To determine percentage of cell population in various cell cycle stage, ˜10,000-30,000 cells were acquired on an Attune NxT cytometer and analyzed using FCS Express software. Cell cycle analysis was performed on propidium iodide stained cells and single cell events were determined by gating on the area against the width of the propidium iodide pulse signal. DNA cell cycle modeling and fit was performed using the Multicycle AV plugin (Phoenix Flow Systems).
# Cells were fixed and stained to detect BrdU incorporation by flow cytometry following the manufacturer's protocol (FITC BrdU Flow Kit, BD Biosciences, Cat #559619).
# [6] = system: one-cell fertilized C57BL/6J embryos; experiment: CRISPR/Cas9 mediated gene editing in mouse embryos; type: cell-based; conditions: Rosa26 locus, 1 fmole/embryo cGAMP
# Description: CRISPR/Cas9 mediated gene editing in mouse embryos: Target sites were selected and gRNAs for these target sites were synthesized via in vitro transcription followed by column clean up and ethanol precipitation purification. One-cell fertilized C57BL/6J embryos were microinjected with a mixture of gRNA (50 ng/μl), ssODN (50 ng/μl, IDT, Table 2), and Cas9 protein (40 ng/μl, PNA Bio). […] Injected embryos were cultured to blastocysts then lysed to isolate genomic DNA. The edited locus (Rosa26) was amplified via PCR, and samples were indexed, pooled and run on a MiSeq Nano 2×250 Reagent Kit. Demultiplexed data was analyzed with CRISPResso (Pinello et al., 2016). Reads ambiguously categorized as “HDR/NHEJ” were manually sorted using a window 30 bp wide flanking the cut site, where reads identical to the expected HDR sequence were recategorized accordingly. Samples with fewer than 100 reads were excluded from analysis.
smiles,measurement,setting,value
"Nc1nc2c(ncn2[C@@H]2O[C@@H]3COP(=O)(O)O[C@H]4[C@@H](O)[C@H](n5cnc6c(N)ncnc65)O[C@@H]4COP(=O)(O)O[C@@H]2[C@@H]3O)c(=O)[nH]1 [cGAMP, cyclic guanosine monophosphate-adenosine monophosphate]",cGAMP-induced H2AX phosphorylation,DDR signaling [1]; Ifnar1−/− or Stat2−/− primary MEFs,unimpaired
same,activation of DDR marker γH2AX,"DDR signaling [1]; Irf3−/− primary MEFs, 16 hours",proceeded normally
same,activation of DDR by cGAMP (γH2AX),"DDR signaling [1]; Sting−/− primary MEFs, 16 hours",abrogated by the deletion of STING
same,DDR activation (γH2AX),"DDR signaling [1]; WT primary MEF, Pam3CSK4 500 ng/ml 6 hours, HT-DNA 4 ug/6-well 6 hours, 5′ppp-dsRNA 0.5 μg/6 well 6 hours, cGAMP 16 hours",activated the DDR
same,cGAMP-induced suppression of protein PARylation in ATM-inhibited cells,PARylation; 25 μM KU-55933,proceeded normally in ATM-inhibited cells
same,total cellular level of protein PARylation,"PARylation; WT THP1, H2O2 or doxorubicin",substantially reduced total cellular level of protein PARylation
same,PARP1 PARylation,"PARylation; WT THP1, cGAMP 6 hours, H2O2 10 minutes, anti-PARP1 IP",notably reduced
same,STING requirement for cGAMP-induced suppression of protein PARylation,"PARylation; WT and STING−/− THP1, 250 μM H2O2 10 minutes",STING was required
same,"phosphorylation status of H2AX, STING, and STAT2",DDR signaling [2],respond normally to cGAMP stimulation
same,camptothecin-induced DNA damage (comet tail length),"THP1 cells; THP1, cGAMP 6 hours then 1 μM camptothecin 16 hours",exacerbates camptothecin-induced DNA damage
same,DNA strand breaks in comet assay,"THP1 cells; THP1 cells, cGAMP 16 hours",no strand breaks were observed
same,EdU-positive cells,[3],diminished count of hRPE and STING-U2OS EdU-positive cells
same,"DDR signaling (γH2AX, pCHK2)",DDR signaling [4],exhibiting biochemical evidence of DDR signaling
same,cGAMP-mediated induction of γH2AX and pCHK2,DDR signaling [5]; IFNAR1 and STAT2 knockdown THP1 cells,failed to impede cGAMP-mediated induction of γH2AX and pCHK2
same,"activation of DDR by cGAMP (H2AX, ATM, CHK2 phosphorylation)","DDR signaling [5]; STING−/− THP1 cells, 16 hours",abrogated by the deletion of STING
same,"DDR activation (γH2AX, pCHK2)","DDR signaling [5]; THP1, LPS 500 ng/ml 6 hours, cGAMP 16 hours",activated the DDR
same,ATR phosphorylation (pATR),DDR signaling [5]; WT THP1,inducing ATR phosphorylation
same,CHK1 activation (pCHK1),DDR signaling [5]; WT THP1,neither activation of CHK1
same,cGAMP-induced DDR signaling,"DDR signaling [5]; cGAS−/− THP1 cells, 16 hours",proceeded normally in cGAS-deficient cells
same,γH2AX in target THP1 cells incubated with conditioned media from cGAMP treated cells,"DDR signaling [5]; conditioned media collected after 18 hours, 18 hours on target cells",failed to induce γH2AX
same,cGAMP-induced DDR signaling,DDR signaling [5]; shTBK1 knockdown THP1 cells,substantially reduced cGAMP-induced DDR signaling
same,"dependence of cGAMP-induced G1 cell cycle arrest on STING, TBK1, IFNAR1, STAT2","cell cycle progression; STING−/−, shTBK1, shIFNAR1, shSTAT2 THP1","reliant on the former two signaling proteins (i.e. STING and TBK1), but occurs independently of IFNAR and STAT2"
same,G1 arrest in unperturbed and PARP-inhibited cells,"cell cycle progression; WT THP1, 10 μM Rucaparib or vehicle, 24 hours",promotes G1 arrest in both unperturbed as well as PARP-inhibited cells
same,number of cells in the S-phase,"cell cycle progression; WT THP1, BrdU, 24 hours",decreased the number of cells in the S-phase
same,proportion of cells in the G1 phase,"cell cycle progression; WT THP1, BrdU, 24 hours",substantially increased the proportion of cells arrested in the G1 phase
same,cGAMP-induced G1 arrest after p53 knockdown,"cell cycle progression; shP53 U2OS-STING cells, 24 hours",abrogated the cGAMP-induced G1 arrest
same,CRISPR/Cas9-mediated HDR editing,[6],significantly diminished
same,non-homologous end joining (NHEJ),[6],unaffected
same,total editing frequency,[6],unaffected
